Results published in patent US8722629B2, “Auristatin derivatives and use thereof” (Seattle Genetics, Inc., priority 2010, dated 2014).
Structures can show the parent of a compound that is named as a salt. Starred links: 1 amine or outer side, 2 acyl side, 3 side chain; linkers in the order of their positions; H or OH if unused. Non-standard residues stand in square brackets, D forms with d. Residues, ends and D or L forms follow the SMILES beside them. *: point of attachment. NMeVal(N-(CH2)3COOH) = CC(C)[C@@H](C(=O)*)N(C)CCCC(=O)O; Dolaproine = CO[C@@H]([C@@H]1CCCN1)[C@@H](C)C(=O)O; X4 = O=C([C@]1(N[*:1])C[C@H]1c1ccccc1)[*:2]; Dil = CC[C@H](C)[C@H](NC)[C@@H](CC(=O)O)OC; X7 = COC(=O)CCCN(C)[C@H](C(=O)*)C(C)C; αMeF = C[C@](N)(Cc1ccccc1)C(=O)O; X5 = CC(C)[C@@H](C(=O)*)N(C)CCO; Oxazinan2yl(1,2) = C1CCN(*)OC1; NMeV = CN[C@H](C(=O)O)C(C)C; X3 = c1ccc2c(c1)CON(*)C2; X6 = C1=CC2CCC1ON2*

What was measured:
[1] = tested on: human colon carcinoma cell line HT29 wt (wild type); assay: Antiproliferative effect on the HT29 wt cell line (MTT assay); format: cell-based; conditions: 10% FCS, incubation 48 h to 96 h
Procedure: B-2. Determination of the Antiproliferative Effect on the HT29 Wt Cell Line:
A defined cell number of the human colon carcinoma cell line HT29 wt (wild type) was sown in a 96-well microtiter plate in complete medium (10% FCS-RPMI) (2500 cells/well) and incubated at 37° C./5% CO2 overnight. After 18 h, the sowing medium was replaced by fresh medium with 10% FCS. Treatment was initiated by addition of the respective test substance. From the substances to be investigated, dose/activity curves in a concentration range of from 10^−5 M to 10^−14 M (1:10-dilution series) were determined. The chosen incubation times were from 48 h to 96 h. Pro-liferation was determined with the aid of the MTT assays (ATCC, Manassas, Va., USA, catalogue No. 30-1010K). After the incubation time, the MTT reagent was incubated with the cells for 4 h, and the cells were subsequently lysed by adding the detergent overnight. The dye formed was detected at 570 nm. Proliferation of cells which had not been treated with test substance, but had otherwise been treated identically, was defined as 100%. The data obtained from this test are triple determinations, and at least two independent experiments were carried out.

[2] = tested on: human renal cancer cell line 786-0; assay: Antiproliferative effect on the 786-0 RCC cell line (MTT assay); format: cell-based; conditions: incubation 48 h to 96 h
Procedure: B-1. Determination of the Antiproliferative Effect on the 786-0 RCC Cell Line:
A defined cell number of the human renal cancer cell line 786-0 was sown in a 96-well microtiter plate in complete medium (2500 or 7000 cells/well) and incubated at 37° C./5% CO2 overnight. After 18 h, the sowing medium was replaced by serum-free medium or medium with 2% FCS. Treatment was initiated by addition of the respective test substance in varying concentration (10^−5 M to […]). The chosen incubation times were from 48 h to 96 h. Proliferation was determined with the aid of the MTT assays (ATCC, Manassas, Va., USA, catalogue No. 30-1010K). After the incubation time, the MTT reagent was incubated with the cells for 4 h, and the cells were subsequently lysed by adding the detergent overnight. The dye formed was detected at 570 nm. […] The data obtained from this test are triple determinations, and at least two independent experiments were carried out.

[3] = Plasma stability in vitro, rat plasma; format: in vitro ADME; conditions: male, Wistar, rat plasma (Li heparin), 37° C., Method A (HPLC)
Procedure: B-4. Determination of the Plasma Stability in vitro:
1 mg of the test substance in question was dissolved in 0.5 ml of acetonitrile/DMSO (9:1). From this solution, 20 μl were removed and added to 1 ml of rat or human plasma at 37° C. (plasma of male Wistar rats with Li heparin from Harlan & Winkelmann or fresh human leukocyte-depleted plasma originating from a whole blood sample). From this plasma solution, which was shaken vigorously, 100 μl aliquots were removed immediately after addition of the sample (initial value as reference) and then after 5, 10, 30, 60, 120, 180 and 240 minutes and optionally after 24 hours and added to 300 μl of acetonitrile. The precipitated plasma proteins were removed by centrifugation at 5000 rpm for 10 minutes, and 30 μl of the supernatant were analysed by HPLC for its content of unmodified test substance. Quantification was via the area percentages of the corresponding peaks.
HPLC Method for Rat Plasma:
Instrument: Agilent 1200 with DAD, binary pump, autosampler, column oven and thermostat; column: Kromasil 100 C18, 250 mm×4 mm, […]; column temperature: 45° C.; mobile phase A: 5 ml of perchloric acid/1 of water, mobile phase B: acetonitrile; gradient: 0-8 min 98% A, 2% B; 8-15 min 56% A, 44% B; […] 10% A, 90% B; 20-21 min 10% A, 90% B; […] 98% A, 2% B; […] 98% A, 2% B; flow rate: 2 ml/min; UV detection: 220 nm.
The test substance was incubated in rat or human plasma at 37° C. over a period of 5 h with gentle stirring. At different points in time (0, 2, 5, 10, 20, 30, 60, 120, 180 and 300 minutes), a 100 μl aliquot was removed. Following addition of internal standard (10 μl), the proteins were precipitated by addition of 200 μl of acetonitrile and the mixture was centrifuged in an Eppendorf centrifuge for 5 minutes. After addition of 150 μl of ammonium acetate buffer pH 3 to 150 μl of the supernatant, the content of unmodified test substance was analysed by LC/MSMS.

[4] = Homo sapiens, HT-29, HT29 wt cells
[5] = Homo sapiens, 786-0, 786-0 cells

SMILES	IC50 [1, 4]	IC50 [2, 5]	other results
CC[C@H](C)[C@@H]([C@@H](CC(=O)N1CCC[C@H]1[C@H](OC)[C@@H](C)C(=O)N[C@@H](Cc1ccccc1)C(=O)N1CCCCO1)OC)N(C)C(=O)[C@@H](NC(=O)[C@H](C(C)C)N(C)CCO)C(C)C [Example 2, N-(2-Hydroxyethyl)-N-methyl-L-valyl-N-[(3R,4S,5S)-3-methoxy-1-{(2S)-2-[(1R,2R)-1-methoxy-2-methyl-3-{[(2S)-1-(1,2-oxazinan-2-yl)-1-oxo-3-phenylpropan-2-yl]amino}-3-oxopropyl]pyrrolidin-1-yl}-5-methyl-1-oxoheptan-4-yl]-N-methyl-L-valinamide] (X5-V[Dil][Dolaproine]F-{Oxazinan2yl(1,2)})	0.5 nM	–	–
CC[C@H](C)[C@@H]([C@@H](CC(=O)N1CCC[C@H]1[C@H](OC)[C@@H](C)C(=O)N[C@@H](Cc1ccccc1)C(=O)N1OC2C=CC1CC2)OC)N(C)C(=O)[C@@H](NC(=O)[C@@H](NC)C(C)C)C(C)C (stereo partly drawn) [Example 6, N-Methyl-L-valyl-N-[(3R,4S,5S)-3-methoxy-1-{(2S)-2-[(1R,2R)-1-methoxy-2-methyl-3-{[(2S)-1-(2-oxa-3-azabicyclo[2.2.2]oct-5-en-3-yl)-1-oxo-3-phenylpropan-2-yl]amino}-3-oxopropyl]pyrrolidin-1-yl}-5-methyl-1-oxoheptan-4-yl]-N-methyl-L-valinamide, trifluoroacetic acid salt] (H-[NMeV]V[Dil][Dolaproine]F-X6)	–	0.5 nM	–
CC[C@H](C)[C@@H]([C@@H](CC(=O)N1CCC[C@H]1[C@H](OC)[C@@H](C)C(=O)N[C@@H](Cc1ccccc1)C(=O)N1Cc2ccccc2CO1)OC)N(C)C(=O)[C@@H](NC(=O)[C@@H](NC)C(C)C)C(C)C [Example 8, N-Methyl-L-valyl-N-[(3R,4S,5S)-1-{(2S)-2-[(1R,2R)-3-{[(2S)-1-(1,4-dihydro-3H-2,3-benzoxazin-3-yl)-1-oxo-3-phenylpropan-2-yl]amino}-1-methoxy-2-methyl-3-oxopropyl]pyrrolidin-1-yl}-3-methoxy-5-methyl-1-oxoheptan-4-yl]-N-methyl-L-valinamide, trifluoroacetic acid salt] (H-[NMeV]V[Dil][Dolaproine]F-X3)	–	2.4 nM	–
CC[C@H](C)[C@@H]([C@@H](CC(=O)N1CCC[C@H]1[C@H](OC)[C@@H](C)C(=O)N[C@@H](Cc1c[nH]c2ccccc12)C(=O)N1CCCCO1)OC)N(C)C(=O)[C@@H](NC(=O)[C@@H](NC)C(C)C)C(C)C [Example 9, N-Methyl-L-valyl-N-[(3R,4S,5S)-1-{(2S)-2-[(1R,2R)-3-{[(2S)-3-(1H-indol-3-yl)-1-(1,2-oxazinan-2-yl)-1-oxopropan-2-yl]amino}-1-methoxy-2-methyl-3-oxopropyl]pyrrolidin-1-yl}-3-methoxy-5-methyl-1-oxoheptan-4-yl]-N-methyl-L-valinamide, trifluoroacetic acid salt] (H-[NMeV]V[Dil][Dolaproine]W-{Oxazinan2yl(1,2)})	1.4 nM	3 nM	–
CC[C@H](C)[C@@H]([C@@H](CC(=O)N1CCC[C@H]1[C@H](OC)[C@@H](C)C(=O)N[C@@]1(C(=O)N2CCCCO2)C[C@H]1c1ccccc1)OC)N(C)C(=O)[C@@H](NC(=O)[C@@H](NC)C(C)C)C(C)C [Example 16, N-Methyl-L-valyl-N-[(3R,4S,5S)-3-methoxy-1-{(2S)-2-[(1R,2R)-1-methoxy-2-methyl-3-{[(1S,2S)-1-(1,2-oxazinan-2-ylcarbonyl)-2-phenylcyclopropyl]amino}-3-oxopropyl]pyrrolidin-1-yl}-5-methyl-1-oxoheptan-4-yl]-N-methyl-L-valinamide, trifluoroacetic acid salt] (H-[NMeV]V[Dil][Dolaproine][X4]-{Oxazinan2yl(1,2)})	–	8 nM	half-life at 39.2 µg/ml [3]: 0.75 h
CC[C@H](C)[C@@H]([C@@H](CC(=O)N1CCC[C@H]1[C@H](OC)[C@@H](C)C(=O)N[C@@](C)(Cc1ccccc1)C(=O)N1CCCCO1)OC)N(C)C(=O)[C@@H](NC(=O)[C@@H](NC)C(C)C)C(C)C [Example 22, N-Methyl-L-valyl-N-[(3R,4S,5S)-3-methoxy-1-{(2S)-2-[(1R,2R)-1-methoxy-2-methyl-3-{[(2S)-2-methyl-1-(1,2-oxazinan-2-yl)-1-oxo-3-phenylpropan-2-yl]amino}-3-oxopropyl]pyrrolidin-1-yl}-5-methyl-1-oxoheptan-4-yl]-N-methyl-L-valinamide, trifluoroacetic acid salt] (H-[NMeV]V[Dil][Dolaproine][αMeF]-{Oxazinan2yl(1,2)})	–	–	half-life at 39.2 µg/ml [3]: 2 h
CC[C@H](C)[C@@H]([C@@H](CC(=O)N1CCC[C@H]1[C@H](OC)[C@@H](C)C(=O)N[C@@H](Cc1ccccc1)C(=O)N1CCCCO1)OC)N(C)C(=O)[C@@H](NC(=O)[C@H](C(C)C)N(C)CCCC(=O)O)C(C)C [Example 24, N-(3-Carboxypropyl)-N-methyl-L-valyl-N-[(3R,4S,5S)-3-methoxy-1-{(2S)-2-[(1R,2R)-1-methoxy-2-methyl-3-{[(2S)-1-(1,2-oxazinan-2-yl)-1-oxo-3-phenylpropan-2-yl]amino}-3-oxopropyl]-pyrrolidin-1-yl}-5-methyl-1-oxoheptan-4-yl]-N-methyl-L-valinamide] ({NMeVal(N-(CH2)3COOH)}-V[Dil][Dolaproine]F-{Oxazinan2yl(1,2)})	1.5 nM	5 nM	–
CC[C@H](C)[C@@H]([C@@H](CC(=O)N1CCC[C@H]1[C@H](OC)[C@@H](C)C(=O)N[C@@]1(C(=O)N2CCCCO2)C[C@@H]1c1ccccc1)OC)N(C)C(=O)[C@@H](NC(=O)[C@H](C(C)C)N(C)CCCCCC(=O)O)C(C)C [Example 26, N-(5-Carboxypentyl)-N-methyl-L-valyl-N-[(3R,4S,5S)-3-methoxy-1-{(2S)-2-[(1R,2R)-1-methoxy-2-methyl-3-{[(1S,2R)-1-(1,2-oxazinan-2-ylcarbonyl)-2-phenylcyclopropyl]amino}-3-oxopropyl]-pyrrolidin-1-yl}-5-methyl-1-oxoheptan-4-yl]-N-methyl-L-valinamide]	–	18 nM	–
CC[C@H](C)[C@@H]([C@@H](CC(=O)N1CCC[C@H]1[C@H](OC)[C@@H](C)C(=O)N[C@@H](Cc1ccccc1)C(=O)N1CCCCO1)OC)N(C)C(=O)[C@@H](NC(=O)[C@H](C(C)C)N(C)CCCC(=O)OC)C(C)C [Example 29, N-(4-Methoxy-4-oxobutyl)-N-methyl-L-valyl-N-[(3R,4S,5S)-3-methoxy-1-{(2S)-2-[(1R,2R)-1-methoxy-2-methyl-3-{[(2S)-1-(1,2-oxazinan-2-yl)-1-oxo-3-phenylpropan-2-yl]amino}-3-oxopropyl]pyrrolidin-1-yl}-5-methyl-1-oxoheptan-4-yl]-N-methyl-L-valinamide] (X7-V[Dil][Dolaproine]F-{Oxazinan2yl(1,2)})	0.1 nM	–	–
CC[C@H](C)[C@@H]([C@@H](CC(=O)N1CCC[C@H]1[C@H](OC)[C@@H](C)C(=O)N[C@@H](Cc1ccccc1)C(=O)O)OC)N(C)C(=O)[C@@H](NC(=O)[C@@H](NC)C(C)C)C(C)C [MMAF, Monomethylauristatin F, reference compound] (H-[NMeV]V[Dil][Dolaproine]F-OH)	–	–	IC50 ([1]; HT29 wt cells): 10 nM; IC50 ([2]; 786-0 cells): 260 nM
